Results as given in US11174252B2, “Heterocyclic compounds as kinase inhibitors” (priority 2018, dated 2021).
Where two headings read alike, the source gives them in different places.

Assays:
CDK4 = CDK4 (Homo sapiens (Human), UniProt P11802); test: In vitro kinase inhibition, luminescence (ADP-Glo) with retinoblastoma substrate; type: biochemical
CDK6 = CDK6 (Homo sapiens (Human), UniProt Q00534); test: biochemical; type: biochemical
MCF-7 = test: Cancer cell proliferation assay, single agent; type: cell-based; details: Homo sapiens
DU4475 = test: Cancer cell proliferation assay, single agent; type: cell-based; details: Homo sapiens
FMS kinase = FMS kinase (Homo sapiens (Human), UniProt P07333); test: LanthaScreen kinase assay (ATP, fluorescent-PolyGT substrate, TR-FRET); type: biochemical
PI3Kδ kinase = PI3Kδ kinase (Homo sapiens (Human), UniProt O00329); test: PI3Kδ kinase ADP-Glo assay (Reaction Biology Corporation); details: read-out: PI3Kδ IC50
[1] = MCF7, MCF-7 cells, treated for 24-168 hours, read-out: IC50 (nM) MCF-7
[2] = DU-4475, DU4475 cells, treated for 24-168 hours, read-out: IC50 (nM) DU4475
[3] = MCF7, read-out: IC50 (nM) MCF-7
[4] = DU-4475, read-out: IC50 (nM) DU4475

Chain of PI3Kδ kinase (O00329 whole entry): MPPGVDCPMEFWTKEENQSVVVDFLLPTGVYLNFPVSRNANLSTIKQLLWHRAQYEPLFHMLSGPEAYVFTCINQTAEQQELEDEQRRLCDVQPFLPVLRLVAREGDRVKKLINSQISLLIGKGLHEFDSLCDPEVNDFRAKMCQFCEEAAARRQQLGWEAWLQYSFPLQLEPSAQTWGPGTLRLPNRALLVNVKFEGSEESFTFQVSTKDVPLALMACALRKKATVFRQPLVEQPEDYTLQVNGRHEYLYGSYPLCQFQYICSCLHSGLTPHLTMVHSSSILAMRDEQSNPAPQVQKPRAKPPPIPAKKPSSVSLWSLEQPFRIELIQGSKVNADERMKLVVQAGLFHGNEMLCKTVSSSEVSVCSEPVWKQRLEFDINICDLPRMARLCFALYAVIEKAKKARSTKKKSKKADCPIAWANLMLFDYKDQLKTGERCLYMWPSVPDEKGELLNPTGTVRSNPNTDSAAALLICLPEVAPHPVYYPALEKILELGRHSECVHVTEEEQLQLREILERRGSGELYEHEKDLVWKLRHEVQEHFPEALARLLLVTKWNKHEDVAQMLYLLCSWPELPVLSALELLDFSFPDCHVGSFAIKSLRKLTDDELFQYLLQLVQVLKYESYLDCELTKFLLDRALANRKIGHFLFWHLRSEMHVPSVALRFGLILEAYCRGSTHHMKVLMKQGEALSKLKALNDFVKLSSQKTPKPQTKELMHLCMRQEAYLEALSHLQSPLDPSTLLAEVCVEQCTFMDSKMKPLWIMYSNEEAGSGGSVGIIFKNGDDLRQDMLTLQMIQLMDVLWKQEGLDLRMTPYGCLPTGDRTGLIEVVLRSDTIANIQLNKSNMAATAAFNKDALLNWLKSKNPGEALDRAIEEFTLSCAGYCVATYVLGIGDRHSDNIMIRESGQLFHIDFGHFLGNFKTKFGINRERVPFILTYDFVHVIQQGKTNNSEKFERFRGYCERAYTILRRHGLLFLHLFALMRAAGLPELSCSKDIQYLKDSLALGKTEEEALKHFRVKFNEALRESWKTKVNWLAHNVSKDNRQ
Chain of PI3Kδ kinase (P27986 whole entry partner): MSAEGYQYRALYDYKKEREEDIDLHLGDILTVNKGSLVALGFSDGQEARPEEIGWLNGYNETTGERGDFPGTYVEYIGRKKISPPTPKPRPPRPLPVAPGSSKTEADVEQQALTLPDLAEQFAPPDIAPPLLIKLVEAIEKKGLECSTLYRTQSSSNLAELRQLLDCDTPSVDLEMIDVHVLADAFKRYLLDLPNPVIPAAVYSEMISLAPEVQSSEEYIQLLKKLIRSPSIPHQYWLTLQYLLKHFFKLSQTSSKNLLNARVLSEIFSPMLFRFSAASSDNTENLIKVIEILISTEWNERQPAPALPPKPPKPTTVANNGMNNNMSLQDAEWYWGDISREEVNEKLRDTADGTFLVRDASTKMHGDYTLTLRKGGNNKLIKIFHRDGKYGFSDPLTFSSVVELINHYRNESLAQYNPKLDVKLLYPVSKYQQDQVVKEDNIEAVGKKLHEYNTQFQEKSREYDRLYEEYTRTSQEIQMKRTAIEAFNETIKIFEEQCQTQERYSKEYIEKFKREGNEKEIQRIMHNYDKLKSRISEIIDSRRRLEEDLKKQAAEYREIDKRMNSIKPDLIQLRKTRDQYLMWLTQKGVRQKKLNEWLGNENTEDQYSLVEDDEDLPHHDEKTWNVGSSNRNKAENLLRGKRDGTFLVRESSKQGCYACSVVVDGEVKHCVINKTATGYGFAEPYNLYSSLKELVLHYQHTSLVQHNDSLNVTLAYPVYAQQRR
Chain of FMS kinase (P07333 20-972): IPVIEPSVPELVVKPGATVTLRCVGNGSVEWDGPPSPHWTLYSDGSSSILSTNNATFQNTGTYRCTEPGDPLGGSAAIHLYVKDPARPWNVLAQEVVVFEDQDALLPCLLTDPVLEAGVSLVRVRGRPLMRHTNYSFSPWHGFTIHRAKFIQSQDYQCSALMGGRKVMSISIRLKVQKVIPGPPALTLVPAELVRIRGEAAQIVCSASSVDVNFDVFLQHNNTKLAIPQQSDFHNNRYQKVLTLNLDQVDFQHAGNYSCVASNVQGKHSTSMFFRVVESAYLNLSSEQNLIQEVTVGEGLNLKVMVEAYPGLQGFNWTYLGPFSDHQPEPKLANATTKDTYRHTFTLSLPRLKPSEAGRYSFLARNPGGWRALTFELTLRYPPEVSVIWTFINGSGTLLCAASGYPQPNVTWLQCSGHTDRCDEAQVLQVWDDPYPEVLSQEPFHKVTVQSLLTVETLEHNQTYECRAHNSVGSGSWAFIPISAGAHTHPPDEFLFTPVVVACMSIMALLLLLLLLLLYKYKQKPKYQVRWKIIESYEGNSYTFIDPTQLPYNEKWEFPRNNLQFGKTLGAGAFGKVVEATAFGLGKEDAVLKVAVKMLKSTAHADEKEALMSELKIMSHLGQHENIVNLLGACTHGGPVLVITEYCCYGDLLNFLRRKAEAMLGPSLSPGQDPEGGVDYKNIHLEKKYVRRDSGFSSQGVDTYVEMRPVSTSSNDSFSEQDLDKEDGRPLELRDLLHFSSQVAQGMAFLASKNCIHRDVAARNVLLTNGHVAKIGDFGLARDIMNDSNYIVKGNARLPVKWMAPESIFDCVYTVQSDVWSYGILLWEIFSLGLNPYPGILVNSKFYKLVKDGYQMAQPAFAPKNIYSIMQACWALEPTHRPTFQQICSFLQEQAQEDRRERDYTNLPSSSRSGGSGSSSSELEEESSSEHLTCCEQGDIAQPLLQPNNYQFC
Chain of CDK4 (P11802 whole entry): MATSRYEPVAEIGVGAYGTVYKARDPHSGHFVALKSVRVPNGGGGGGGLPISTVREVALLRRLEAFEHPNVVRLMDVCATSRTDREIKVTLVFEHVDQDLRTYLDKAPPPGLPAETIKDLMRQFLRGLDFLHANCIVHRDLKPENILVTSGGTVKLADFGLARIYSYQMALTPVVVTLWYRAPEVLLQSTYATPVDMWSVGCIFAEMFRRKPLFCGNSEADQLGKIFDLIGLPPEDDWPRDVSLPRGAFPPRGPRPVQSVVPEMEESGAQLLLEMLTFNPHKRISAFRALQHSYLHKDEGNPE
Chain of CDK4 (P24385 whole entry partner): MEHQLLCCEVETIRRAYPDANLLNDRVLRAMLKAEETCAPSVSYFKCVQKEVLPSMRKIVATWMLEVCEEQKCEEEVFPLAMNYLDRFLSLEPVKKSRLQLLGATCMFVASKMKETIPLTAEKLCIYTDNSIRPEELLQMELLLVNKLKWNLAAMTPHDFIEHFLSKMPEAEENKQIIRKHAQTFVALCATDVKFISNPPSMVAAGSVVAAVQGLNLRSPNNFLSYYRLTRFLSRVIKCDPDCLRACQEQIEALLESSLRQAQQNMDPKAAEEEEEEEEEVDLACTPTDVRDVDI

| IC50 (CDK4) [nM] | IC50 (CDK6) [nM] | IC50 (MCF-7; [1]) [nM] | IC50 (DU4475; [2]) [nM] | IC50 (FMS kinase) [nM] | IC50 (PI3Kδ kinase) [nM] | SMILES | IC50 (MCF-7; [3]) [nM] | IC50 (DU4475; [4]) [nM] |
| --- | --- | --- | --- | --- | --- | --- | --- | --- |
| 36 | 105 | 345 | 395 | – | – | CC(C)N1CCOc2c(F)cc(-c3nc(Nc4ccc(S(=O)(=O)N5CCN(C)CC5)cc4)ncc3F)cc21 [Compound 522, 5-fluoro-4-(8-fluoro-4-isopropyl-3,4-dihydro-2H-benzo[b][1,4]oxazin-6-yl)-N-(4-((4-methylpiperazin-1-yl)sulfonyl)phenyl)pyrimidin-2-amine] | – | – |
| 9 | 41 | 90 | 205 | – | – | CC(C)N1CCOc2c(F)cc(-c3nc(Nc4ccc(S(=O)(=O)NC5CCNCC5)cc4)ncc3F)cc21 [Compound 791, 4-((5-fluoro-4-(8-fluoro-4-isopropyl-3,4-dihydro-2H-benzo[b][1,4]oxazin-6-yl)pyrimidin-2-yl)amino)-N-(piperidin-4-yl)benzenesulfonamide] | – | – |
| 3.2 | – | 50 | – | 8 | 8020 | CC(C)N1CCOc2c(F)cc(-c3nc(Nc4cnn(C5CCNCC5)c4)ncc3F)cc21 [Compound 448, 5-fluoro-4-(8-fluoro-4-isopropyl-3,4-dihydro-2H-benzo[b][1,4]oxazin-6-yl)-N-(1-(piperidin-4-yl)-1H-pyrazol-4-yl)pyrimidin-2-amine] | – | – |
| 5 | 18 | 240 | 1260 | – | – | Cc1nc(Nc2ncc(F)c(-c3cc(F)c4c(c3)N(C(C)C)CCO4)n2)ccc1C1CCN(C)CC1 [Compound 503, 5-fluoro-4-(8-fluoro-4-isopropyl-3,4-dihydro-2H-benzo[b][1,4]oxazin-6-yl)-N-(6-methyl-5-(1-methylpiperidin-4-yl)pyridin-2-yl)pyrimidin-2-amine] | – | – |
| 3.5 | 9 | 30 | 50 | 17 | – | CCN1CCN(Cc2ccc(Nc3ncc(F)c(-c4cc(F)c5c(c4)N(C(C)C)CCO5)n3)cc2F)CC1 [Compound 461, N-(4-((4-ethylpiperazin-1-yl)methyl)-3-fluorophenyl)-5-fluoro-4-(8-fluoro-4-isopropyl-3,4-dihydro-2H-benzo[b][1,4]oxazin-6-yl)pyrimidin-2-amine] | – | – |
| 1 | 4 | 155 | 995 | – | – | CC(C)N1CCOc2c(F)cc(-c3nc(Nc4ccc(CN5CCN(CC6CC6)CC5)cn4)ncc3F)cc21 [Compound 516, N-(5-((4-(cyclopropylmethyl)piperazin-1-yl)methyl)pyridin-2-yl)-5-fluoro-4-(8-fluoro-4-isopropyl-3,4-dihydro-2H-benzo[b][1,4]oxazin-6-yl)pyrimidin-2-amine] | – | – |
| 8.5 | 22 | 85 | 80 | 42 | – | CCN1CCN(C(=O)c2ccc(Nc3ncc(F)c(-c4cc(F)c5c(c4)N(C(C)C)CCO5)n3)cc2F)CC1 [Compound 464, (4-ethylpiperazin-1-yl)(2-fluoro-4-((5-fluoro-4-(8-fluoro-4-isopropyl-3,4-dihydro-2H-benzo[b][1,4]oxazin-6-yl)pyrimidin-2-yl)amino)phenyl)methanone] | – | – |
| – | 3 | 17 | 20 | – | – | CC(C)N1CCOc2c(F)cc(-c3nc(Nc4ccc(C(N)=O)c(F)c4)ncc3F)cc21 [Compound 790, 2-fluoro-4-((5-fluoro-4-(8-fluoro-4-isopropyl-3,4-dihydro-2H-benzo[b][1,4]oxazin-6-yl)pyrimidin-2-yl)amino)benzamide] | – | – |
| 1.5 | 3.5 | 20 | 25 | 17 | – | CC(C)N1CCOc2c(F)cc(-c3nc(Nc4ccc(C(=O)N5CCC(N(C)C)CC5)c(F)c4)ncc3F)cc21 [Compound 463, (4-(dimethylamino)piperidin-1-yl)(2-fluoro-4-((5-fluoro-4-(8-fluoro-4-isopropyl-3,4-dihydro-2H-benzo[b][1,4]oxazin-6-yl)pyrimidin-2-yl)amino)phenyl)methanone] | – | – |
| – | – | 495 | – | 46 | > 30000 | CC(C)N1CCOc2c(F)cc(-c3nc(Nc4ccc(N5CCSCC5)c(F)c4)ncc3F)cc21 [Compound 469, 5-fluoro-4-(8-fluoro-4-isopropyl-3,4-dihydro-2H-benzo[b][1,4]oxazin-6-yl)-N-(3-fluoro-4-thiomorpholinophenyl)pyrimidin-2-amine] | – | – |
| 145 | > 200 | 2500 | > 10000 | – | – | CC1CN(c2ccc(Nc3ncc(F)c(-c4cc(F)c5c(c4)N(C(C)C)CCO5)n3)nc2)CC(C)O1 (centres unmarked) [Compound 515, N-(5-(2,6-dimethylmorpholino)pyridin-2-yl)-5-fluoro-4-(8-fluoro-4-isopropyl-3,4-dihydro-2H-benzo[b][1,4]oxazin-6-yl)pyrimidin-2-amine] | – | – |
| 3.5 | 7.5 | 55 | 30 | 68 | – | CC(C)N1CCOc2c(F)cc(-c3nc(Nc4ccc(C(=O)N5CCOCC5)c(F)c4)ncc3F)cc21 [Compound 457, (2-fluoro-4-((5-fluoro-4-(8-fluoro-4-isopropyl-3,4-dihydro-2H-benzo[b][1,4]oxazin-6-yl)pyrimidin-2-yl)amino)phenyl)(morpholino)methanone] | – | – |
| 1.5 | 4 | 108 | 275 | – | – | CC(C)N1CCOc2c(F)cc(-c3nc(Nc4ccc(C5CCN(C)CC5)nn4)ncc3F)cc21 [Compound 517, N-(5-fluoro-4-(8-fluoro-4-isopropyl-3,4-dihydro-2H-benzo[b][1,4]oxazin-6-yl)pyrimidin-2-yl)-6-(1-methylpiperidin-4-yl)pyridazin-3-amine] | – | – |
| – | – | 354 | – | – | – | CC(C)N1CCOc2c(F)cc(-c3nc(Nc4ccc(N5CCN(C(=O)CO)CC5)cn4)ncc3F)cc21 [Compound 506, 1-(4-(6-((5-fluoro-4-(8-fluoro-4-isopropyl-3,4-dihydro-2H-benzo[b][1,4]oxazin-6-yl)pyrimidin-2-yl)amino)pyridin-3-yl)piperazin-1-yl)-2-hydroxyethan-1-one] | – | 1500 |
| 5.5 | 19.8 | 3670 | 7700 | – | – | CC(C)N1CCOc2c(F)cc(-c3nc(Nc4ccc(C(N)=O)cn4)ncc3F)cc21 [Compound 521, 6-((5-fluoro-4-(8-fluoro-4-isopropyl-3,4-dihydro-2H-benzo[b][1,4]oxazin-6-yl)pyrimidin-2-yl)amino)nicotinamide] | – | – |
| 5.5 | 9 | 40 | 65 | 25 | – | CC(C)N1CCOc2c(F)cc(-c3nc(Nc4ccc(CN5CCC(N(C)C)CC5)c(F)c4)ncc3F)cc21 [Compound 462, N-(4-((4-(dimethylamino)piperidin-1-yl)methyl)-3-fluorophenyl)-5-fluoro-4-(8-fluoro-4-isopropyl-3,4-dihydro-2H-benzo[b][1,4]oxazin-6-yl)pyrimidin-2-amine] | – | – |

| SMILES | IC50 (CDK4) [nM] | IC50 (CDK6) [nM] | IC50 (MCF-7; [1]) [nM] | IC50 (DU4475; [2]) [nM] | IC50 (FMS kinase) [nM] | IC50 (PI3Kδ kinase) [nM] | IC50 (MCF-7; [3]) [nM] | IC50 (DU4475; [4]) [nM] |
| --- | --- | --- | --- | --- | --- | --- | --- | --- |
| CCN1CCC(c2ccc(Nc3ncc(F)c(-c4cc(F)c5c(c4)N(C(C)C)CCO5)n3)nc2)CC1 [Compound 501, N-(5-(1-ethylpiperidin-4-yl)pyridin-2-yl)-5-fluoro-4-(8-fluoro-4-isopropyl-3,4-dihydro-2H-benzo[b][1,4]oxazin-6-yl)pyrimidin-2-amine] | 2 | 5 | – | – | – | – | 140 | 1020 |
| CC(C)N1CCOc2c(F)cc(-c3nc(Nc4ccc(CN5CCN(C)CC5)c(F)c4)ncc3F)cc21 [Compound 792, 5-fluoro-N-(3-fluoro-4-((4-methylpiperazin-1-yl)methyl)phenyl)-4-(8-fluoro-4-isopropyl-3,4-dihydro-2H-benzo[b][1,4]oxazin-6-yl)pyrimidin-2-amine] | 4 | 4 | 32 | – | – | – | – | 75 |
| CC(C)N1CCOc2c(F)cc(-c3nc(Nc4ccc(N5CCC(N)CC5)cn4)ncc3F)cc21 [Compound 788, N-(5-(4-aminopiperidin-1-yl)pyridin-2-yl)-5-fluoro-4-(8-fluoro-4-isopropyl-3,4-dihydro-2H-benzo[b][1,4]oxazin-6-yl)pyrimidin-2-amine] | 2 | 4 | 130 | – | – | – | – | 920 |
| CC(C)N1CCOc2c(F)cc(-c3nc(Nc4ccc(N5CCNCC5)nc4)ncc3F)cc21 [Compound 23, 5-fluoro-4-(8-fluoro-4-isopropyl-3,4-dihydro-2H-benzo[b][1,4]oxazin-6-yl)-N-(6-(piperazin-1-yl)pyridin-3-yl)pyrimidin-2-amine] | – | – | – | – | 25 | 4880 | < 10 | – |
| CC(C)N1CCOc2c(F)cc(-c3nc(Nc4ccc(C(=O)N5CCC(O)CC5)c(F)c4)ncc3F)cc21 [Compound 458, (2-fluoro-4-((5-fluoro-4-(8-fluoro-4-isopropyl-3,4-dihydro-2H-benzo[b][1,4]oxazin-6-yl)pyrimidin-2-yl)amino)phenyl)(4-hydroxypiperidin-1-yl)methanone] | 0.5 | 10 | 30 | – | 29 | – | – | 35 |
| CC(C)N1CCOc2c(F)cc(-c3nc(Nc4ccc(C5CCN(C(=O)CO)CC5)cn4)ncc3F)cc21 [Compound 510, 1-(4-(6-((5-fluoro-4-(8-fluoro-4-isopropyl-3,4-dihydro-2H-benzo[b][1,4]oxazin-6-yl)pyrimidin-2-yl)amino)pyridin-3-yl)piperidin-1-yl)-2-hydroxyethan-1-one] | 3 | 4 | – | – | – | – | 293 | 1970 |
